In ChEMBL document CHEMBL3885881, “DrugMatrix”:

Species: Rattus norvegicus
Test: DrugMatrix - Regimen: Daily Repeat
Format: toxicity, organism-based, Sprague-Dawley
Set-up: regimen Daily Repeat, gender Male, age 6-8 weeks
Conditions: in vivo, po, route oral GAVAGE, […]; for ABSOLUTE BASOPHIL / BASOPHIL / EOSINOPHIL / ERYTHROCYTE COUNT / HEMATOCRIT / HEMOGLOBIN / LEUKOCYTE COUNT / LYMPHOCYTE / MEAN CORPUSCULAR HEMOGLOBIN / MEAN CORPUSCULAR HEMOGLOBIN CONCENTRATION / MEAN CORPUSCULAR VOLUME / MONOCYTE / NEUTROPHIL / PLATELET COUNT: tissue Blood
[1] = 30 mg/kg, 120 h, tissue Plasma, dose level Low, time 5 day
[2] = 35 mg/kg, 72 h, dose level Low, time 3 day
[3] = 35 mg/kg, 72 h, tissue Plasma, dose level Low, time 3 day
[4] = 35 mg/kg, 120 h, dose level Low, time 5 day
[5] = 35 mg/kg, 120 h, tissue Plasma, dose level Low, time 5 day
[6] = 400 mg/kg, 72 h, dose level High, time 3 day
[7] = 400 mg/kg, 72 h, tissue Plasma, dose level High, time 3 day
[8] = 400 mg/kg, 120 h, dose level High, time 5 day
[9] = 400 mg/kg, 120 h, tissue Plasma, dose level High, time 5 day

**Q.** What does the source list for `Cc1ccc(-c2cc(C(F)(F)F)nn2-c2ccc(S(N)(=O)=O)cc2)cc1` [CELECOXIB]?
**A.** ALBUMIN [1]: 3.93 G/DL; ALKALINE PHOSPHATASE [1]: 354.33 u/L; ASPARTATE AMINOTRANSFERASE [1]: 82.67 u/L; BLOOD UREA NITROGEN [1]: 10.67 mg/dL; CARBON DIOXIDE [1]: 25 mmol/L; CHLORIDE [1]: 101 MEQ/L; CHOLESTEROL [1]: 56.33 mg/dL; CREATINE PHOSPHOKINASE [1]: 247 u/L; CREATININE [1]: 0.12 mg/dL; GLUCOSE [1]: 191.67 mg/dL; LACTATE DEHYDROGENASE [1]: 107 u/L; LIPASE [1]: 6.33 u/L; PHOSPHORUS [1]: 12.27 mg/dL; POTASSIUM [1]: 5.29 MEQ/L; SODIUM [1]: 142.9 MEQ/L; TOTAL BILIRUBIN [1]: 0.2 mg/dL; TOTAL PROTEIN [1]: 5.8 G/DL; URIC ACID [1]: 1.67 mg/dL; ABSOLUTE BASOPHIL [2]: 23.3 cells/µL; BASOPHIL [2]: 0.2%; EOSINOPHIL [2]: 0.57%; ERYTHROCYTE COUNT [2]: 6.93 x10E6/uL; HEMATOCRIT [2]: 43.8%; HEMOGLOBIN [2]: 14.23 G/DL; LEUKOCYTE COUNT [2]: 11.06 x10E3/uL; LYMPHOCYTE [2]: 78.9%; MEAN CORPUSCULAR HEMOGLOBIN [2]: 20.57 pg; MEAN CORPUSCULAR HEMOGLOBIN CONCENTRATION [2]: 32.53 G/DL; MEAN CORPUSCULAR VOLUME [2]: 63.27 fL; MONOCYTE [2]: 2.2%; NEUTROPHIL [2]: 16.8%; PLATELET COUNT [2]: 1233.67 x10E3/uL; ALANINE AMINOTRANSFERASE [3]: 48 u/L; ALBUMIN [3]: 3.53 G/DL; ALKALINE PHOSPHATASE [3]: 409.67 u/L; ASPARTATE AMINOTRANSFERASE [3]: 65 u/L; BLOOD UREA NITROGEN [3]: 10.33 mg/dL; CHLORIDE [3]: 105.67 MEQ/L; CHOLESTEROL [3]: 68.67 mg/dL; CREATINE PHOSPHOKINASE [3]: 192.67 u/L; CREATININE [3]: 0.37 mg/dL; GLUCOSE [3]: 180 mg/dL; PHOSPHORUS [3]: 12.47 mg/dL; POTASSIUM [3]: 6.47 MEQ/L; SODIUM [3]: 146.67 MEQ/L; TOTAL BILIRUBIN [3]: 0.43 mg/dL; TOTAL PROTEIN [3]: 5.63 G/DL; ABSOLUTE BASOPHIL [4]: 56.7 cells/µL; BASOPHIL [4]: 0.5%; EOSINOPHIL [4]: 0.17%; ERYTHROCYTE COUNT [4]: 6.92 x10E6/uL; HEMATOCRIT [4]: 43.47%; HEMOGLOBIN [4]: 14.1 G/DL; LEUKOCYTE COUNT [4]: 12.56 x10E3/uL; LYMPHOCYTE [4]: 82.3%; MEAN CORPUSCULAR HEMOGLOBIN [4]: 20.4 pg; MEAN CORPUSCULAR HEMOGLOBIN CONCENTRATION [4]: 32.43 G/DL; MEAN CORPUSCULAR VOLUME [4]: 62.8 fL; MONOCYTE [4]: 1.9%; NEUTROPHIL [4]: 13.9%; PLATELET COUNT [4]: 1178.33 x10E3/uL; ALANINE AMINOTRANSFERASE [5]: 42 u/L; ALBUMIN [5]: 3.57 G/DL; ALKALINE PHOSPHATASE [5]: 324.67 u/L; ASPARTATE AMINOTRANSFERASE [5]: 63.67 u/L; BLOOD UREA NITROGEN [5]: 9.67 mg/dL; CHLORIDE [5]: 103 MEQ/L; CHOLESTEROL [5]: 76.67 mg/dL; CREATINE PHOSPHOKINASE [5]: 179.33 u/L; CREATININE [5]: 0.37 mg/dL; GLUCOSE [5]: 187.33 mg/dL; PHOSPHORUS [5]: 11.8 mg/dL; POTASSIUM [5]: 6.73 MEQ/L; SODIUM [5]: 146 MEQ/L; TOTAL BILIRUBIN [5]: 0.33 mg/dL; TOTAL PROTEIN [5]: 5.9 G/DL; ABSOLUTE BASOPHIL [6]: 30 cells/µL; BASOPHIL [6]: 0.27%; EOSINOPHIL [6]: 0.6%; ERYTHROCYTE COUNT [6]: 6.71 x10E6/uL; HEMATOCRIT [6]: 42.57%; HEMOGLOBIN [6]: 14.27 G/DL; LEUKOCYTE COUNT [6]: 12.22 x10E3/uL; LYMPHOCYTE [6]: 70.53%; MEAN CORPUSCULAR HEMOGLOBIN [6]: 21.27 pg; MEAN CORPUSCULAR HEMOGLOBIN CONCENTRATION [6]: 33.53 G/DL; MEAN CORPUSCULAR VOLUME [6]: 63.47 fL; MONOCYTE [6]: 3.27%; NEUTROPHIL [6]: 24.33%; PLATELET COUNT [6]: 1571.33 x10E3/uL; ALANINE AMINOTRANSFERASE [7]: 62 u/L; ALBUMIN [7]: 3.4 G/DL; ALKALINE PHOSPHATASE [7]: 437.67 u/L; ASPARTATE AMINOTRANSFERASE [7]: 74.67 u/L; BLOOD UREA NITROGEN [7]: 9.33 mg/dL; CHLORIDE [7]: 106.67 MEQ/L; CHOLESTEROL [7]: 88.33 mg/dL; CREATINE PHOSPHOKINASE [7]: 191.67 u/L; CREATININE [7]: 0.33 mg/dL; GLUCOSE [7]: 177.33 mg/dL; PHOSPHORUS [7]: 12.6 mg/dL; POTASSIUM [7]: 6.63 MEQ/L; SODIUM [7]: 145 MEQ/L; TOTAL BILIRUBIN [7]: 0.33 mg/dL; TOTAL PROTEIN [7]: 5.53 G/DL; ABSOLUTE BASOPHIL [8]: 190 cells/µL; BASOPHIL [8]: 1.28%; EOSINOPHIL [8]: 0.3%; ERYTHROCYTE COUNT [8]: 6.61 x10E6/uL; HEMATOCRIT [8]: 42.7%; HEMOGLOBIN [8]: 13.26 G/DL; LEUKOCYTE COUNT [8]: 18.19 x10E3/uL; LYMPHOCYTE [8]: 68.98%; MEAN CORPUSCULAR HEMOGLOBIN [8]: 20.16 pg; MEAN CORPUSCULAR HEMOGLOBIN CONCENTRATION [8]: 31.14 G/DL; MEAN CORPUSCULAR VOLUME [8]: 64.7 fL; MONOCYTE [8]: 2.54%; NEUTROPHIL [8]: 25.24%; PLATELET COUNT [8]: 1512.2 x10E3/uL; ALANINE AMINOTRANSFERASE [9]: 41.6 u/L; ALBUMIN [9]: 3.44 G/DL; ALKALINE PHOSPHATASE [9]: 451.2 u/L; ASPARTATE AMINOTRANSFERASE [9]: 64.8 u/L; BLOOD UREA NITROGEN [9]: 11.2 mg/dL; CHLORIDE [9]: 105.8 MEQ/L; CHOLESTEROL [9]: 91.6 mg/dL; CREATINE PHOSPHOKINASE [9]: 166.4 u/L; CREATININE [9]: 0.34 mg/dL; GLUCOSE [9]: 185.8 mg/dL; PHOSPHORUS [9]: 12.94 mg/dL; POTASSIUM [9]: 7.1 MEQ/L; SODIUM [9]: 151 MEQ/L; TOTAL BILIRUBIN [9]: 0.2 mg/dL; TOTAL PROTEIN [9]: 5.9 G/DL
